Entries after “also recorded” stand apart in the source; their conditions may differ.
Key:
[1] = test system: NMU-induced mammary carcinoma of the rat; experiment: Tumor growth inhibition in NMU-induced breast cancer model in rat; assay type: in vivo, Sprague-Dawley rats; conditions: 5 mg/kg/day, 4 weeks
Description: Tumors were induced by a single intravenous injection of NMU (nitrosomethylurea, 50 mg/kg) in female Sprague-Dawley rats (obtained from Tierzucht Schönwalde, age 50-55 days). Starting 10 days later, rats with at least one established tumor were treated for 4 weeks by: 1) solvent control, 2) ovariectomy at treatment start, 3) antiprogestin (I), 1.0 mg/kg/day, 4) antiprogestin (1), 0.5 mg/kg/day and 5) onapristone, 5 mg/kg/day. As a parameter for growth inhibition the change of tumor area (in % of initial tumor size) determined by weekly caliper measurements was used. For statistical analysis of intergroup differences of mean values the Kruskal-Wallis-test was used.

[2] = test system: T47D cells; experiment: Antiproliferative activity in vitro in the T47D cell line (estradiol-stimulated, crystal violet); assay type: cell-based, human; conditions: 0.1 nM estradiol, 6 days
Description: T47D cells were grown in charcoal-treated serum supplemented with 0.1 nM E2 (estradiol) plus antiprogestin (I) for 6 days with one medium change. Following fixation and subsequent staining with crystal violet, the absorbance was recorded and values normalized to the absorbance of untreated controls as described in R. B. Lichtner, J. Steroid Biochem. Mol. Biol. 1999, 71; 181-189. The TUNEL assay is performed analogous to above Example 5 with the only difference that instead of tissue sections cells that are cultivated on microscopic slides are used for the assay.

[3] = test system: DMBA-induced mammary carcinoma of the rat; experiment: Dose-response study in the DMBA-induced mammary tumor model; assay type: in vivo, Sprague-Dawley rats; conditions: 5 mg/kg s.c. daily, 4 weeks
Description: Immature female Sprague-Dawley rats (49-51 days old; 10 animals/group) were used in this study. Mammary tumors were induced by a single oral administration of 10 mg 7,12-dimethylbenz[a]anthracene (DMBA, Serva/Heidelberg). Rats with at least one established tumor with a size of more than 150 mm^2 were treated for 4 weeks by: 1) solvent control, 2) ovariectomy at treatment start, 3) antiprogestin (I), 0,5 mg/kg s.c., 4) antiprogestin (1), 2 mg/kg s.c., 5) antiprogestin (I), 5 mg/kg s.c., 6) antiprogestin (1), 10 mg/kg s.c., and 7) onapristone, 5 mg/kg, s.c., daily. As a parameter for growth inhibition the change of tumor area (in % with respect to initial tumor size) determined by weekly caliper measurements was used. For statistical analysis of intergroup differences of mean values the Kruskal-Wallis-test was used. For a further description and evaluation of the DMBA prevention model, see R. G. Metha, European Journal of Cancer 36 (2000), pp. 1275-1282.

SMILES | tumor growth inhibiting effect relative to antiprogestin (I) at 0.5 mg/kg [1] | inhibition of estradiol-stimulated T47D cell growth [2] | tumor growth inhibiting effect relative to antiprogestin (I) [3]
CN(C)c1ccc([C@H]2C[C@]3(C)[C@@H](CC[C@]3(O)CCCO)[C@@H]3CCC4=CC(=O)CCC4=C32)cc1 [onapristone, reference compound] | distinctly less effective than antiprogestin (1) | did not show any inhibiting effect; also recorded: no reducing effect on cell growth | distinctly less effective than antiprogestin (I)
CN(CCCCC[C@@H]1Cc2cc(O)ccc2[C@@H]2[C@@H]1[C@@H]1CC[C@H](O)[C@@]1(C)C[C@@H]2F)CCCSCCCC(F)(F)C(F)(F)F [11β-fluoro-7α-{5-[N-methyl-N-3-(4,4,5,5,5-pentafluoropentylthio)-propylamino]-pentyl}-estra-1,3,5(10)-trien-3,17β-diol] |  | distinctly less effective than antiprogestin (I) | 

From patent US20040072811A1, “Use of antiprogestins for the induction of apoptosis in a cell” (priority 2000, published 2004)
